Experimental data from patent US20050180982A1, “Cadherin-11 expression, an assay and treatment for cellular invasiveness” (THE UNIVERSITY OF BRITISH COLUMBIA, priority 1998, published 2005).

Tests used:
[1] = test system: Cos-1 cells transfected with the steroid acute regulatory protein; experiment: Non-specific effects on cell number and steroidogenic capacity in Cos-1 cells; format: cell-based; parameters: cell number (Coulter cell counter): dose or concentration left out as unconfirmed
Description: Non-specific effects of the antisense oligonucleotides on cell viability and the steroidogenic capacity of cells was determined using Cos-1 cells transfected with the steroid acute regulatory protein (from Dr. J. F. Strauss, III. University of Pennsylvania, Philadelphia, Pa.). […] The COS-1 cells were cultured in the presence or absence of varying concentrations of OB-1 OR OB-3 (0.5-5 M) for 48 hours. The cell number present in each culture was determined using a Coulter™ cell counter and P4 concentrations present in the culture medium using a Progesterone RIA™ kit. As determined by these parameters.

[2] = test system: N-cadherin mRNA in human granulosa cells; experiment: Specificity of antisense in granulosa cells, Northern blot, N-cadherin probe; format: cell-based; settings: 0.5-5 M, 24 hours
Description: (§1) In order to determine the specificity of OB-1, the effect of OB-1 was determined in human granulosa cells. Human granulosa cells express three cadherin subtypes (cad-11, cad-6 and N-cad) as they undergo spontaneous luteinization in culture. Granulosa cells which had been cultured for 36 hours were treated with OB-1 or OB-3 (0.5-5 M). The cultures were maintained for a further 24 hours, after which the cells were harvested for Northern analysis. Northern blots were probed with cad-11, cad-6, or N-cadherin (neural cadherin) cDNA probes as previously described. OB-1 caused a reduction in the levels of the cad-11 RNA transcript in a dose-dependent manner but had no effect on cad-6 or N-cadherin mRNA levels. In contrast.

[3] = test system: human decidual cells; experiment: Effect on primary cultures of human decidual cells; settings: 0.5-5 M for 24 hours
[4] = test system: villous cytotrophoblasts; experiment: Reversibility of oligonucleotide effects on villous cytotrophoblasts; format: cell-based, human; settings: 48 hours with oligonucleotide, washed, further 24 hours
Description: To determine whether the effects of OB-1 on villous cytotrophoblasts are reversible, cells were cultured in the presence of OB-1 or OB-3 for 48 hours. The cells were washed thoroughly with PBS. The culture medium was then replaced and the cells cultured for a further 24 hours. […] The majority of cells (90%) detached from the culture and dish. Cad-11 was not detected in the remaining cells.

[5] = test system: Villous cytotrophoblasts isolated from the human term placenta, cultured 72 hours
[6] = test system: cad-6 mRNA in human granulosa cells; experiment: Specificity of antisense in granulosa cells, Northern blot, cad-6 probe; format: cell-based; settings: 0.5-5 M, 24 hours
Description: as §1

[7] = test system: cytotrophoblasts isolated from term placenta; experiment: Morphology of cytotrophoblasts by light microscopy and indirect immunofluorescence; format: cell-based, human; settings: indirect immunofluorescence for E-cadherin
From the text: The effect of OB-1 and OB-3 on the morphology of the cytotrophoblast was examined by light microscopy and indirect immunofluoresence.

[8] = test system: PC3 cells treated with TGF-1; experiment: Effect of oligonucleotides on PC3 cells treated with TGF-1; settings: 0.5-5 M for 24 hours
[9] = test system: cad-11 RNA transcript in human granulosa cells; experiment: Specificity of antisense in granulosa cells, Northern blot, cad-11 probe; format: cell-based; parameters: dose or concentration left out as unconfirmed; settings: 24 hours, dose-dependent manner for OB-1
Description: as §1

OB-3: sense oligonucleotide prepared as control: ATG ACA AAT GTT CGG CGG (SEQ ID NO:3) (sense ATGACAAATGTTCGGCGG; chemistry not given here) [reference compound]
steroidogenic capacity (P4 concentrations in culture medium, RIA) ([1]; 0.5-5 M for 48 hours): did not have a significant effect | cell number (Coulter cell counter) ([1]; for 48 hours): did not have a significant effect | N-cadherin mRNA levels [2]: did not effect | cell viability and number [3]: did not have a significant effect | structures observed after wash-out [4]: large syncytial structures | viability of syncytial structures (trypan blue) [5]: viable | structures observed (phase contrast microscopy) ([5]; oligonucleotide added after 72 hours of culture, OB-1 for 24 hours): Large syncytial structures | cad-6 mRNA levels [6]: did not effect | composition of cellular structures formed (fusion) [7]: multinucleated syncytial structures | cell viability and number [8]: did not have a significant effect | levels of the cad-11 RNA transcript [9]: did not effect
